Patent US20230242530A1, “8-(AZETIDIN-1-YL)-[1,2,4]TRIAZOLO[1,5-A]PYRIDINYL COMPOUNDS, COMPOSITIONS AND METHODS OF USE THEREOF” (Genentech, Inc., priority 2016, published 2023)

Tests used:
[1] = biological target: T1, isolated recombinant JAK2 kinase domain (Homo sapiens, UniProt O60674); test: JAK enzyme assay, JAK2 kinase domain (Caliper LabChip); type: biochemical; settings: 0.2 nM JAK2, ATP 25 μM, Morrison tight binding model
T1 construct: isolated recombinant JAK1 and JAK2 kinase domain
Procedure, shortened: (§1)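 Ki values were obtained by Morrison tight-binding analysis with ATP-competitive correction, Ki=Ki,app/(1+[ATP]/Km,app). Phosphorylated versus total fluorescent JAK3-derived peptide was quantified on a Caliper LabChip. Kinase reactions with the isolated recombinant domains ran 30 min at 22 °C before EDTA quench (50 mM final).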

[2] = biological target: T2, isolated recombinant JAK1 kinase domain (Homo sapiens, UniProt P23458); test: JAK enzyme assay, JAK1 kinase domain (Caliper LabChip); type: biochemical; settings: 1.5 nM JAK1, ATP 25 μM, Morrison tight binding model
T2 construct: isolated recombinant JAK1 and JAK2 kinase domain
Procedure, shortened: as §1

[3] = test system: JAK1-dependent STAT6 phosphorylation downstream of IL-13 stimulation in BEAS-2B cells; test: JAK1 pathway assay in cell lines: IL-13 p-STAT6 BEAS-2B; type: cell-based; settings: BEAS-2B human bronchial epithelial cells, 1 hr compound, IL-13 15 min, MSD readout
Procedure, shortened: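 Phospho-STAT6 read by MSD electrochemiluminescence in lysates of BEAS-2B cells kept in complete growth medium. Cells were pretreated 1 hr at 37 °C with compound (0.2% DMSO final) and stimulated 15 min with IL-13 at its EC90; EC50 is the concentration halving signal versus DMSO.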

T2 sequence (P23458 875-1153 limits assumed): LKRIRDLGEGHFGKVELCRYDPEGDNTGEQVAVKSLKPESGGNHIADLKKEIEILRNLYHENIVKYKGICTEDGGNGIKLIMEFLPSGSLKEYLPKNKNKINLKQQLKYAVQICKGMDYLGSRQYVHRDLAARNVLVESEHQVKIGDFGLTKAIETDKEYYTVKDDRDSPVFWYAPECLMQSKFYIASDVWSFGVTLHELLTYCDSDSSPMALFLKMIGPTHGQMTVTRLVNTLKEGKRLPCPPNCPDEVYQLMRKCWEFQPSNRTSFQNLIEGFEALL
T1 sequence (O60674 849-1124 limits assumed): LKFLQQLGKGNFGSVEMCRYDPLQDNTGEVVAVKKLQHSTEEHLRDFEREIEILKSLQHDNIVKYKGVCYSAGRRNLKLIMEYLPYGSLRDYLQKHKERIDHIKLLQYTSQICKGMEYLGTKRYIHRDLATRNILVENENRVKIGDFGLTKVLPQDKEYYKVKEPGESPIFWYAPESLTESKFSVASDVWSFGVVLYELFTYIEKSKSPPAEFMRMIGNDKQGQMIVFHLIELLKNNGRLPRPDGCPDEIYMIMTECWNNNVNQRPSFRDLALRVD

| SMILES | Ki [1] | Ki [2] | EC50 [3] |
| --- | --- | --- | --- |
| N#CCC1(n2cc(C(F)(F)F)cn2)CN(c2cccn3nc(Nc4ccc(C(=O)N5CCN(C6COC6)CC5)cc4)nc23)C1 [Example 103, 2-[1-[2-[4-[4-(oxetan-3-yl)piperazine-1-carbonyl]anilino]-[1,2,4]triazolo[1,5-a]pyridin-8-yl]-3-[4-(trifluoromethyl)pyrazol-1-yl]azetidin-3-yl]acetonitrile] | 1.7 nM | 0.3 nM | 33 nM |
| CCN1CCN(C(=O)Cn2cc(Nc3nc4c(N5CC(CC#N)(c6cccc(SC)c6)C5)cccn4n3)cn2)CC1 [Example 80] | 0.8 nM | 0.5 nM | 51 nM |
| CCc1cnn(C2(CC#N)CN(c3cccn4nc(Nc5cnn(CC(=O)N6CCC(NCC(C)(F)F)CC6)c5)nc34)C2)c1 [Example 30, 2-[1-[2-[[1-[2-[4-(2,2-difluoropropylamino)-1-piperidyl]-2-oxo-ethyl]pyrazol-4-yl]amino]-[1,2,4]triazolo[1,5-a]pyridin-8-yl]-3-(4-ethylpyrazol-1-yl)azetidin-3-yl]acetonitrile] | 2.7 nM | 0.7 nM | 104 nM |
| CCc1cnn(C2(CC#N)CN(c3cccn4nc(Nc5cnn(CC(=O)N6CCN(C)CC6)c5)nc34)C2)c1 [Example 1, 2-[3-(4-ethyl-1H-pyrazol-1-yl)-1-[2-([1-[2-(4-methylpiperazin-1-yl)-2-oxoethyl]-1H-pyrazol-4-yl]amino)-[1,2,4]triazolo[1,5-a]pyridin-8-yl]azetidin-3-yl]acetonitrile] | 2 nM | 0.8 nM | 29 nM |
| CCc1cnn(C2(CC#N)CN(c3cccn4nc(Nc5cnn(CC(=O)N6CCC(CN7CCOCC7)CC6)c5)nc34)C2)c1 [Example 53, 2-[3-(4-ethylpyrazol-1-yl)-1-[2-[[1-[2-[4-(morpholinomethyl)-1-piperidyl]-2-oxo-ethyl]pyrazol-4-yl]amino]-[1,2,4]triazolo[1,5-a]pyridin-8-yl]azetidin-3-yl]acetonitrile] | 0.6 nM | 0.9 nM | 31 nM |
| CCc1cnn(C2(CC#N)CN(c3cccn4nc(Nc5ccc(C(=O)NCCCN6CCOCC6)cc5)nc34)C2)c1 [Example 67, 4-[[8-[3-(cyanomethyl)-3-(4-ethylpyrazol-1-yl)azetidin-1-yl]-[1,2,4]triazolo[1,5-a]pyridin-2-yl]amino]-N-(3-morpholinopropyl)benzamide] | 1.1 nM | 0.5 nM | 167 nM |
| CN1CCN(C(=O)Cn2cc(Nc3nc4c(N5CC(CC#N)(n6cc(CCO)cn6)C5)cccn4n3)cn2)CC1 [Example 25, 2-[3-[4-(2-hydroxyethyl)pyrazol-1-yl]-1-[2-[[1-[2-(4-methylpiperazin-1-yl)-2-oxo-ethyl]pyrazol-4-yl]amino]-[1,2,4]triazolo[1,5-a]pyridin-8-yl]azetidin-3-yl]acetonitrile] | 2.3 nM | 0.4 nM | 137 nM |
| CN1CCN(C(=O)Cn2cc(Nc3nc4c(N5CC(CC#N)(N6CCOCC6)C5)cccn4n3)cn2)CC1 [Example 8] | 1.5 nM | 0.3 nM | 12 nM |
| CN1CCN(C(=O)Cn2cc(Nc3nc4c(N5CC(CC#N)(CCc6ccccc6)C5)cccn4n3)cn2)CC1 [Example 76] | 0.9 nM | 0.3 nM | 16 nM |
| CN1CCN(C(=O)Cn2cc(Nc3nc4c(N5CC(CC#N)(n6cc(-c7ccccc7F)cn6)C5)cccn4n3)cn2)CC1 [Example 77, 2-[3-[4-(2-fluorophenyl)pyrazol-1-yl]-1-[2-[[1-[2-(4-methylpiperazin-1-yl)-2-oxo-ethyl]pyrazol-4-yl]amino]-[1,2,4]triazolo[1,5-a]pyridin-8-yl]azetidin-3-yl]acetonitrile] | 0.6 nM | 0.2 nM | 17 nM |
| CCc1cnn(C2(CC#N)CN(c3cccn4nc(Nc5ccc(C(=O)N6CCN(C)CC6)cc5)nc34)C2)c1 [Example 38, 2-(3-(4-ethyl-1H-pyrazol-1-yl)-1-(2-((4-(4-methylpiperazine-1-carbonyl)phenyl)amino)-[1,2,4]triazolo[1,5-a]pyridin-8-yl)azetidin-3-yl)acetonitrile] | 4.1 nM | 0.7 nM | 615 nM |
| N#CCC1(n2cc(Br)cn2)CN(c2cccn3nc(Nc4cnn(CC(=O)N5CCC(N6CCOCC6)CC5)c4)nc23)C1 [Example 130, 2-[3-(4-bromopyrazol-1-yl)-1-[2-[[1-[2-(4-morpholino-1-piperidyl)-2-oxo-ethyl]pyrazol-4-yl]amino]-[1,2,4]triazolo[1,5-a]pyridin-8-yl]azetidin-3-yl]acetonitrile] | 1.1 nM | 0.4 nM | 117 nM |
| CSc1cc(C2(CC#N)CN(c3cccn4nc(Nc5cnn(CC(=O)N6CCN(C)CC6)c5)nc34)C2)ccc1F [Example 79, 2-[3-(4-fluoro-3-methylsulfanyl-phenyl)-1-[2-[[1-[2-(4-methylpiperazin-1-yl)-2-oxo-ethyl]pyrazol-4-yl]amino]-[1,2,4]triazolo[1,5-a]pyridin-8-yl]azetidin-3-yl]acetonitrile] | 0.7 nM | 0.3 nM | 16 nM |
| CN1CCN(C(=O)Cn2cc(Nc3nc4c(N5CC(CC#N)(n6cc(C7CC7)cn6)C5)cccn4n3)cn2)CC1 [Example 43, 2-[3-(4-cyclopropylpyrazol-1-yl)-1-[2-[[1-[2-(4-methylpiperazin-1-yl)-2-oxo-ethyl]pyrazol-4-yl]amino]-[1,2,4]triazolo[1,5-a]pyridin-8-yl]azetidin-3-yl]acetonitrile] | 4 nM | 0.6 nM | 48 nM |

Molecules with a lower Ki [1], results first:

| Ki [1] | Ki [2] | SMILES | EC50 [3] |
| --- | --- | --- | --- |
| 0.3 nM | 0.1 nM | CSc1cnn(C2(CC#N)CN(c3cccn4nc(Nc5cn[nH]c5)nc34)C2)c1 [Example 144, 2-[3-(4-methylsulfanyIpyrazol-1-yl)-1-[2-(1H-pyrazol-4-ylamino)-[1,2,4]triazolo[1,5-a]pyridin-8-yl]azetidin-3-yl]acetonitrile] | 7 nM |
| 0.2 nM | 0.3 nM | CCc1cnn(C2(CC#N)CN(c3cccn4nc(Nc5cnn(CC(=O)N6CCC(NCC(C)(C)C#N)CC6)c5)nc34)C2)c1 [Example 33, 3-[[1-[2-[4-[[8-[3-(cyanomethyl)-3-(4-ethylpyrazol-1-yl)azetidin-1-yl]-[1,2,4]triazolo[1,5-a]pyridin-2-yl]amino]pyrazol-1-yl]acetyl]-4-piperidyl]amino]-2,2-dimethyl-propanenitrile] | 18 nM |
| 0.2 nM | 0.2 nM | N#CCC1(n2cc(Br)cn2)CN(c2cccn3nc(Nc4cn[nH]c4)nc23)C1 [Example 128, 2-[3-(4-bromopyrazol-1-yl)-1-[2-(1H-pyrazol-4-ylamino)-[1,2,4]triazolo[1,5-a]pyridin-8-yl]azetidin-3-yl]acetonitrile] | 8 nM |
| 0.2 nM | 0.4 nM | CCc1cnn(C2(CC#N)CN(c3cccn4nc(Nc5cnn(CC(=O)N6CCC(CN7CCN(C)CC7)CC6)c5)nc34)C2)c1 [Example 47] | 11 nM |
| 0.4 nM | 0.4 nM | N#CCC1(n2cc(C(F)(F)F)cn2)CN(c2cccn3nc(Nc4cnn(CC(=O)N5CCN(CCO)CC5)c4)nc23)C1 [Example 125, formic acid;2-[1-[2-[[1-[2-[4-(2-hydroxyethyl)piperazin-1-yl]-2-oxo-ethyl]pyrazol-4-yl]amino]-[1,2,4]triazolo[1,5-a]pyridin-8-yl]-3-[4-(trifluoromethyl)pyrazol-1-yl]azetidin-3-yl]acetonitrile] | 21 nM |
| 0.3 nM | 0.3 nM | N#CCC1(n2cc(C(F)(F)F)cn2)CN(c2cccn3nc(Nc4cnn(CCO)c4)nc23)C1 [Example 134, 2-[1-[2-[[1-(2-hydroxyethyl)pyrazol-4-yl]amino]-[1,2,4]triazolo[1,5-a]pyridin-8-yl]-3-[4-(trifluoromethyl)pyrazol-1-yl]azetidin-3-yl]acetonitrile] | 13 nM |
| 0.5 nM | 0.2 nM | CCc1cnn(C2(CC#N)CN(c3cccn4nc(Nc5cnn(CC(=O)N6CCC(N(C)CC(C)(C)C#N)CC6)c5)nc34)C2)c1 [Example 52, 3-[[1-[2-[4-[[8-[3-(cyanomethyl)-3-(4-ethylpyrazol-1-yl)azetidin-1-yl]-[1,2,4]triazolo[1,5-a]pyridin-2-yl]amino]pyrazol-1-yl]acetyl]-4-piperidyl]-methyl-amino]-2,2-dimethyl-propanenitrile] | 13 nM |
| 0.3 nM | 0.3 nM | CCc1cnn(C2(CC#N)CN(c3cccn4nc(Nc5cnn(CCO)c5)nc34)C2)c1 [Example 133, 2-[3-(4-ethylpyrazol-1-yl)-1-[2-[[1-(2-hydroxyethyl)pyrazol-4-yl]amino]-[1,2,4]triazolo[1,5-a]pyridin-8-yl]azetidin-3-yl]acetonitrile] | 12 nM |
| 0.2 nM | 0.3 nM | CN1CCN(C(=O)Cn2cc(Nc3nc4c(N5CC(CC#N)(n6cc(CCF)cn6)C5)cccn4n3)cn2)CC1 [Example 40, 2-[3-[4-(2-fluoroethyl)pyrazol-1-yl]-1-[2-[[1-[2-(4-methylpiperazin-1-yl)-2-oxo-ethyl]pyrazol-4-yl]amino]-[1,2,4]triazolo[1,5-a]pyridin-8-yl]azetidin-3-yl]acetonitrile] | 18 nM |
